Reference: patent US20080090805A1, “CB-1 MODULATING COMPOUNDS AND THEIR USE” (ACADIA PHARMACEUTICALS INC., priority 2005, published 2008)

What was measured:
NSA mice = assay: Hypothermia study (block of CP 55,940-induced hypothermia); assay type: in vivo; set-up: Hypothermia 3 mg/kg / Hypothermia 0.3 mg/kg: unit not given here; details: for Hypothermia ID50: block of CP 55,940-induced hypothermia
Procedure: . […] Core body temperatures were then obtained at various time points following CP 55,940 administration. Core body temperature (to the nearest 0.1° C.) was obtained by rectal probe.

native CB1 receptors = native CB1 receptors (Rattus norvegicus, UniProt P20272); assay: CB1 receptor rat binding assay ([3H]SR141716A, rat brain membranes); details: rat brain membranes, [3H]SR141716A; for Ki: read-out: Binding rat pKi (converted)
Chain of native CB1 receptors (P20272 whole entry): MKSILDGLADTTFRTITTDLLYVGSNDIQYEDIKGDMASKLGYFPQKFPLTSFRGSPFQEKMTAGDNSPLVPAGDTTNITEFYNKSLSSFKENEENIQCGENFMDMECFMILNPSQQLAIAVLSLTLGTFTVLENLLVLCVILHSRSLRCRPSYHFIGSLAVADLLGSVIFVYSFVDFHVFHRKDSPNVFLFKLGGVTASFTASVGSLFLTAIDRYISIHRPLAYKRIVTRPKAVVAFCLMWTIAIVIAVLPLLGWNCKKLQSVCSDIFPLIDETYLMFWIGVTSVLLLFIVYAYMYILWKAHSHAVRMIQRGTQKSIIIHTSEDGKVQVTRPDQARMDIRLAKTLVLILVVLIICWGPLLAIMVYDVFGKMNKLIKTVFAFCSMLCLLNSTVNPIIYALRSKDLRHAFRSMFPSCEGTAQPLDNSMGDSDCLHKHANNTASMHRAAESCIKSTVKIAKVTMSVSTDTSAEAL

| Structure (SMILES) | Hypothermia 3 mg/kg (NSA mice) | Hypothermia 0.3 mg/kg (NSA mice) | other results |
| --- | --- | --- | --- |
| CCCCNC(=O)c1ccc2c(c1)N=C(c1ccc(F)c(Cl)c1)c1ccccc1S2 | 94 | – | – |
| O=C(NN1CCCCC1)c1ccc2c(c1)N=C(c1ccc(Cl)cn1)c1ccccc1S2 [drawing 1651] | 57 | – | – |
| O=C(NCc1cccnc1)c1ccc2c(c1)N=C(c1ccc(Br)cc1)c1ccccc1S2 [drawing 1613] | 2 | – | – |
| C[C@@H]1CCC[C@H](C)N1NC(=O)c1ccc2c(c1)N=C(c1cccc(F)c1)c1ccccc1S2 [drawing 1635] | 17 | – | – |
| CC(C)CNC(=O)c1ccc2c(c1)N=C(c1ccc(Cl)cn1)c1ccc(F)cc1S2 [drawing 1625] | 27 | – | – |
| O=C(NN1CCCCCC1)c1ccc2c(c1)N=C(c1cccc(F)c1)c1ccccc1S2 [drawing 1590] | 85 | 21 | Hypothermia ID50 (NSA mice): 0.93 mg/kg |
| O=C(NN1CCCCC1)c1ccc2c(c1)N=C(c1ccc(Cl)s1)c1ccccc1S2 [drawing 1561] | 42 | – | – |
| CCCCNC(=O)c1ccc2c(c1)N=C(c1ccc(Cl)cn1)c1ccccc1S2 [drawing 1595] | 53 | – | – |
| O=C(NCc1cccc(Cl)c1)c1ccc2c(c1)N=C(c1ccc(Cl)cc1)c1ccccc1S2 [drawing 1614] | −16 | – | – |
| O=C(NCCCC(F)(F)F)c1ccc2c(c1)N=C(c1ccc(Cl)s1)c1ccccc1S2 [drawing 1554] | 73 | 11 | Hypothermia ID50 (NSA mice): 1.7 mg/kg |
| O=C(NCc1ccccc1)c1ccc2c(c1)N=C(c1ccc(Cl)cc1)c1ccccc1S2 [drawing 1648] | 68 | – | – |
| O=C(NCCc1ccncc1)c1ccc2c(c1)N=C(c1ccc(Cl)s1)c1ccccc1S2 [drawing 1609] | 67 | – | – |
| COc1ccc(C2=Nc3cc(C(=O)NCC(C)C)ccc3Sc3ccccc32)cc1 [drawing 1599] | 71 | – | – |
| O=C(NN1CCCCCC1)c1ccc2c(c1)N=C(c1ccc(Cl)cc1F)c1ccccc1S2 [drawing 1563] | 54 | 2 | – |
| O=C(NCc1ccco1)c1ccc2c(c1)N=C(c1cccc(Cl)c1)c1ccccc1S2 [drawing 1581] | 67 | 24 | Hypothermia ID50 (NSA mice): 1 mg/kg |
| CCCCNC(=O)c1ccc2c(c1)N=C(c1ccc(F)cn1)c1ccccc1S2 [drawing 1629] | 54 | – | – |
| COc1cccc(C2=Nc3cc(C(=O)NC4CCC(F)(F)CC4)ccc3Sc3ccccc32)n1 [drawing 1572] | 19 | – | – |
| CC(C)CNC(=O)c1ccc2c(c1)N=C(c1cccc(Cl)c1)c1ccccc1S2 [drawing 1646] | 54 | – | – |
| O=C(NC1CCCCC1)c1ccc2c(c1)N=C(c1cccc(F)c1)c1ccccc1S2 [drawing 1632] | 44 | – | – |
| O=C(NCCc1ccncc1)c1ccc2c(c1)N=C(c1ccc(Cl)c(Cl)c1)c1ccccc1S2 [drawing 1591] | 41 | – | – |
| O=C(NCc1ccco1)c1ccc2c(c1)N=C(c1ccc(F)cc1)c1ccccc1S2 [drawing 1553] | 90 | −11 | Hypothermia ID50 (NSA mice): 1.2 mg/kg |
| O=C(NCCc1cccnc1)c1ccc2c(c1)N=C(c1ccc(Cl)c(Cl)c1)c1ccccc1S2 [drawing 1569] | 41 | – | – |
| O=C(NCc1cccnc1)c1ccc2c(c1)N=C(c1cccc(Br)c1)c1ccccc1S2 [drawing 1641] | 56 | 0 | – |
| CC(C)CCNC(=O)c1ccc2c(c1)N=C(c1cccc(Cl)c1)c1ccccc1S2 [drawing 1564] | 64 | 35 | – |

| Structure (SMILES) | Hypothermia 3 mg/kg (NSA mice) | Hypothermia 0.3 mg/kg (NSA mice) | other results |
| --- | --- | --- | --- |
| O=C(NN1CCCCC1)c1ccc2c(c1)N=C(c1ccc(Cl)cc1)c1ccccc1S2 [drawing 1575] | 69 | −18 | – |
| Cc1ccsc1C1=Nc2cc(C(=O)NCc3ccco3)ccc2Sc2ccccc21 [drawing 1639] | 30 | – | – |
| O=C(NCc1ccc(F)cc1)c1ccc2c(c1)N=C(c1ccc(Cl)cc1)c1ccccc1S2 [drawing 1630] | 83 | 18 | Hypothermia ID50 (NSA mice): 1.8 mg/kg |
| CC(C)CNC(=O)c1ccc2c(c1)N=C(c1ccc(Cl)cc1)c1ccccc1S2 [drawing 1634] | 79 | 25 | – |
| O=C(NCc1cccc(Cl)c1)c1ccc2c(c1)N=C(N1CCC(F)(F)CC1)c1ccccc1S2 [drawing 1652] | 19 | −31 | – |
| O=C(NCc1cccs1)c1ccc2c(c1)N=C(c1ccc(Cl)cc1)c1ccccc1S2 [drawing 1628] | 92 | – | Hypothermia ID50 (NSA mice): 0.9 mg/kg |
| Cc1ccsc1C1=Nc2cc(C(=O)NN3CCCCC3)ccc2Sc2ccccc21 [drawing 1615] | 31 | – | – |
| O=C(NCc1cccnc1)c1ccc2c(c1)N=C(c1ccc(F)cc1)c1ccccc1S2 [drawing 1611] | 28 | 11 | – |
| O=C(NCc1ccc(F)cc1)c1ccc2c(c1)N=C(C1CCCCC1)c1ccccc1S2 [drawing 1640] | 80 | 24 | Hypothermia ID50 (NSA mice): 1.5 mg/kg |
| Cc1csc(CNC(=O)c2ccc3c(c2)N=C(c2cccc(C)n2)c2ccccc2S3)c1 [drawing 1616] | 54 | 42 | Hypothermia ID50 (NSA mice): 1.8 mg/kg |
| O=C(NCc1ccccc1Cl)c1ccc2c(c1)N=C(c1cccc(Cl)c1)c1ccccc1S2 [drawing 1573] | −2 | – | – |
| CCCCNC(=O)c1ccc2c(c1)N=C(c1ccc(Cl)cc1)c1ccc(F)cc1S2 [drawing 1562] | 53 | 11 | – |
| O=C(NCc1cccc(Cl)c1)c1ccc2c(c1)N=C(c1ccccc1)c1ccccc1S2 [drawing 1449] | – | – | Ki (native CB1 receptors): 7.94 nM |
| C[C@@H]1CCC[C@H](C)N1NC(=O)c1ccc2c(c1)N=C(c1ccc(Cl)c(Cl)c1)c1ccccc1S2 [drawing 1393] | – | – | Binding rat Inh % (native CB1 receptors): 114%; Ki (native CB1 receptors): 5.01 nM |
| CC(CNC(=O)c1ccc2c(c1)N=C(C1CCCCC1)c1ccccc1S2)c1ccccc1 (stereo not drawn) [drawing 1329] | – | – | Ki (native CB1 receptors): 3.16 nM |
| O=C(NNC(=O)c1ccc2c(c1)N=C(c1ccc(F)cc1)c1ccccc1S2)c1ccccc1 [drawing 1519] | – | – | Binding rat Inh % (native CB1 receptors): 79%; Ki (native CB1 receptors): 79.4 nM |
| CC(C)CNC(=O)c1ccc2c(c1)N=C(c1ccc(F)cc1)c1ccccc1S2 [drawing 1319] | – | – | Binding rat Inh % (native CB1 receptors): 87%; Ki (native CB1 receptors): 3.16 nM |
| CCCC1=Nc2cc(C(=O)NC3CCC(C)CC3)ccc2Sc2ccccc21 (stereo not drawn) [drawing 1437] | – | – | Ki (native CB1 receptors): 50.1 nM |
| O=C(NCc1cccnc1)c1ccc2c(c1)N=C(c1ccccc1F)c1ccccc1S2 [drawing 1318] | – | – | Binding rat Inh % (native CB1 receptors): 73%; Ki (native CB1 receptors): 25.1 nM |
| CC(C)CNC(=O)c1ccc2c(c1)N=C(c1ccccc1F)c1ccccc1S2 [drawing 1307] | – | – | Binding rat Inh % (native CB1 receptors): 90%; Ki (native CB1 receptors): 20 nM |
| COCCNC(=O)c1ccc2c(c1)N=C(c1ccc(Br)cc1)c1ccccc1S2 [drawing 1358] | – | – | Binding rat Inh % (native CB1 receptors): 89%; Ki (native CB1 receptors): 31.6 nM |
| O=C(NCc1ccco1)c1ccc2c(c1)N=C(c1ccc(Cl)cc1)c1ccccc1S2 [drawing 1369] | – | – | Binding rat Inh % (native CB1 receptors): 93%; Ki (native CB1 receptors): 5.01 nM |
| CC(NC(=O)c1ccc2c(c1)N=C(c1ccccc1F)c1ccccc1S2)c1ccccc1 (stereo not drawn) [drawing 1422] | – | – | Ki (native CB1 receptors): 39.8 nM |
| CCCC1=Nc2cc(C(=O)NCCc3cc(OC)ccc3OC)ccc2Sc2ccccc21 [drawing 1549] | – | – | Ki (native CB1 receptors): 100 nM |
